Each compound was assayed against T1, recombinant human NK3 receptor (Homo sapiens, UniProt P29371) (assay: [3H]SR142801 competition binding assay). Conditions: membranes from HEK293 cells transiently expressing hNK3; [3H]SR142801 at its KD; 75 min RT; read-out: Data [μM] (affinity constant Ki, hNK3 receptor binding).
T1 construct: expressed in transfected cells; host or cells: HEK293 cells (transient expression), membranes
T1 sequence (P29371 1-465): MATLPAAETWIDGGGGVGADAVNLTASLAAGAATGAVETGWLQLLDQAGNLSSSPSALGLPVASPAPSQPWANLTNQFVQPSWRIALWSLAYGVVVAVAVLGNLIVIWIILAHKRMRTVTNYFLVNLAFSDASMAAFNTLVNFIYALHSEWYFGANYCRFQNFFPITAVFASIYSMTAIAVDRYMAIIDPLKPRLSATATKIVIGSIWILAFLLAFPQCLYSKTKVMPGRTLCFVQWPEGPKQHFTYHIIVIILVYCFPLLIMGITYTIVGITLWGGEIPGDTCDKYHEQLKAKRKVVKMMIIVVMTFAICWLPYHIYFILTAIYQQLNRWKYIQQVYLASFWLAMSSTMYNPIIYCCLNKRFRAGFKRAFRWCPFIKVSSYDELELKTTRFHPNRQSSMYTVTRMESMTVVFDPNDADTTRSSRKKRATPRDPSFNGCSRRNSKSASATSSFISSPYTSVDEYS
Protocol: [^3H]SR142801 Competition Binding Assay
hNK3 receptor binding experiment were performed using [^3H]SR142801 (Catalog No. TRK1035, specific activity: 74.0 Ci/mmol, Amersham, GE Healthcare UK limited, Buckinghamshire, UK) and membrane isolated from HEK293 cells transiently expressing recombinant human NK3 receptor. After thawing, the membrane homogenates were centrifuged at 48,000×g for 10 min at 4° C., the pellets were resuspended in the 50 mM Tris-HCl, 4 mM MnCl2, 1 μM phosphoramidon, 0.1% BSA binding buffer at pH 7.4 to a final assay concentration of 5 μg protein/well. […] At the end of the incubation, membranes were filtered onto unitfilter (96-well white microplate with bonded GF/C filter preincubated 1 h in 0.3% PEI+0.3% BSA, Packard BioScience, Meriden, Conn.) with a Filtermate 196 harvester (Packard BioScience) and washed 4 times with ice-cold 50 mM Tris-HCl, pH 7.4 buffer. Nonspecific binding was measured in the presence of 10 μM SB222200 for both radioligands. The radioactivity on the filter was counted (5 min) on a Packard Top-count microplate scintillation counter with quenching correction after addition of 45 μl of microscint 40 (Can berra Packard S. A., Zürich, Switzerland) and shaking for 1 h. Inhibition curves were fitted according to the Hill equation: y=100/(1+(x/IC50)^nH), where nH=slope factor using Excel-fit 4 software (Microsoft). IC50 values were derived from the inhibition curve and the affinity constant (Ki) values were calculated using the Cheng-Prussoff equation Ki=IC50/(1+[L]/KD) where [L] is the concentration of radioligand and KD is its dissociation constant at the receptor, derived from the saturation isotherm. All experiments were performed in duplicate and the mean±standard error (SEM) of the individual Ki values was calculated.

| Ki | SMILES |
| --- | --- |
| 0.0036 µM | COCC(=O)N1CCC(C(=O)N2C[C@H]([C@H](C)Oc3ccc(C#N)cn3)[C@@H](c3ccc(Cl)c(Cl)c3)C2)CC1 (racemic) [Example 24, 6-((SR)-1-{(3RS,4SR)-4-(3,4-Dichloro-phenyl)-1-[1-(2-methoxy-acetyl)-piperidine-4-carbonyl]-pyrrolidin-3-yl}-ethoxy)-nicotinonitrile] |
| 0.0019 µM | C[C@H](Oc1ccc(C#N)cn1)[C@H]1CN(C(=O)C2CCN(C(=O)C3(C)CC3)CC2)C[C@@H]1c1ccc(Cl)c(Cl)c1 (racemic) [Example 47, 6-((SR)-1-{(3RS,4SR)-4-(3,4-Dichloro-phenyl)-1-[1-(1-methyl-cyclopropanecarbonyl)-piperidine-4-carbonyl]-pyrrolidin-3-yl}-ethoxy)-nicotinonitrile] |
| 0.001 µM | C[C@H](Oc1ccc(Cl)cn1)[C@H]1CN(C(=O)C2CCN(C(=O)C3(C)CC3)CC2)C[C@@H]1c1ccc(Cl)cc1 [Example 52, {(3S,4R)-3-(4-Chloro-phenyl)-4-[(S)-1-(5-chloro-pyridin-2-yloxy)-ethyl]-pyrrolidin-1-yl}-[1-(1-methyl-cyclopropanecarbonyl)-piperidin-4-yl]-methanone] |
| 0.0074 µM | C[C@H](Oc1ccc(Cl)cn1)[C@H]1CN(C(=O)C2CCN(C(=O)C3(C)CC3)CC2)C[C@@H]1c1ccc(F)cc1F (racemic) [Example 48, [(3RS,4SR)-3-[(SR)-1-(5-Chloro-pyridin-2-yloxy)-ethyl]-4-(2,4-difluoro-phenyl)-pyrrolidin-1-yl]-[1-(1-methyl-cyclopropanecarbonyl)-piperidin-4-yl]-methanone] |
| 0.0028 µM | C[C@H](Oc1ccc(C#N)cn1)[C@H]1CN(C(=O)[C@H]2CC[C@H](N(C)C(=O)OC(C)(C)C)CC2)C[C@@H]1c1ccc(Cl)c(Cl)c1 (racemic) [Example 42, {4-[(3RS,4SR)-3-[(SR)-1-(5-Cyano-pyridin-2-yloxy)-ethyl]-4-(3,4-dichloro-phenyl)-pyrrolidine-1-carbonyl]-cyclohexyl}-methyl-carbamic acid tert-butyl ester] |

The next lines start with the compound.

| SMILES | Ki |
| --- | --- |
| C[C@H](Oc1ccc(C#N)cn1)[C@H]1CN(C(=O)C2CCN(C(=O)CC#N)CC2)C[C@@H]1c1ccc(Cl)c(Cl)c1 (racemic) [Example 23, 6-{(SR)-1-[(3RS,4SR)-1-[1-(2-Cyano-acetyl)-piperidine-4-carbonyl]-4-(3,4-dichloro-phenyl)-pyrrolidin-3-yl]-ethoxy}-nicotinonitrile] | 0.0075 µM |
| C[C@H](Oc1ccc(Cl)cn1)[C@H]1CN(C(=O)C2CCN(C(=O)C3CCC3)CC2)C[C@@H]1c1ccc(Cl)c(Cl)c1 (racemic) [Example 3, [(3RS,4SR)-3-[(SR)-1-(5-Chloro-pyridin-2-yloxy)-ethyl]-4-(3,4-dichloro-phenyl)-pyrrolidin-1-yl]-(1-cyclobutanecarbonyl-piperidin-4-yl)-methanone] | 0.0012 µM |
| C[C@H](Oc1ccc(C#N)cn1)[C@H]1CN(C(=O)C2CCN(C(=O)C3CC(=O)C3)CC2)C[C@@H]1c1ccc(Cl)c(Cl)c1 (racemic) [Example 21, 6-((SR)-1-{(3RS,4SR)-4-(3,4-Dichloro-phenyl)-1-[1-(3-oxo-cyclobutanecarbonyl)-piperidine-4-carbonyl]-pyrrolidin-3-yl}-ethoxy)-nicotinonitrile] | 0.0021 µM |
| C#C[C@H]1CC[C@H](C(=O)N2C[C@H]([C@H](C)Oc3ccc(Cl)cn3)[C@@H](c3ccc(Cl)c(Cl)c3)C2)CC1 (racemic) [Example 10, [(3RS,4SR)-3-[(SR)-1-(5-Chloro-pyridin-2-yloxy)-ethyl]-4-(3,4-dichloro-phenyl)-pyrrolidin-1-yl]-(4-ethynyl-cyclohexyl)-methanone] | 0.009 µM |
| CC(C)CN1CCC(C(=O)N2C[C@H]([C@H](C)Oc3ccc(Cl)cn3)[C@@H](c3ccc(Cl)c(Cl)c3)C2)CC1 (racemic) [Example 11, [(3RS,4SR)-3-[(SR)-1-(5-Chloro-pyridin-2-yloxy)-ethyl]-4-(3,4-dichloro-phenyl)-pyrrolidin-1-yl]-(1-isobutyl-piperidin-4-yl)-methanone] | 0.0061 µM |
